Test results reported in article PMC11863801 (The Journal of Headache and Pain, 2025).

Biological target: NaV1.9 (Rattus norvegicus, UniProt O88457)
Experiment: whole-cell patch clamp of NaV1.9-mediated current
Assay type: cell-based

Sequence of NaV1.9 (O88457 whole entry): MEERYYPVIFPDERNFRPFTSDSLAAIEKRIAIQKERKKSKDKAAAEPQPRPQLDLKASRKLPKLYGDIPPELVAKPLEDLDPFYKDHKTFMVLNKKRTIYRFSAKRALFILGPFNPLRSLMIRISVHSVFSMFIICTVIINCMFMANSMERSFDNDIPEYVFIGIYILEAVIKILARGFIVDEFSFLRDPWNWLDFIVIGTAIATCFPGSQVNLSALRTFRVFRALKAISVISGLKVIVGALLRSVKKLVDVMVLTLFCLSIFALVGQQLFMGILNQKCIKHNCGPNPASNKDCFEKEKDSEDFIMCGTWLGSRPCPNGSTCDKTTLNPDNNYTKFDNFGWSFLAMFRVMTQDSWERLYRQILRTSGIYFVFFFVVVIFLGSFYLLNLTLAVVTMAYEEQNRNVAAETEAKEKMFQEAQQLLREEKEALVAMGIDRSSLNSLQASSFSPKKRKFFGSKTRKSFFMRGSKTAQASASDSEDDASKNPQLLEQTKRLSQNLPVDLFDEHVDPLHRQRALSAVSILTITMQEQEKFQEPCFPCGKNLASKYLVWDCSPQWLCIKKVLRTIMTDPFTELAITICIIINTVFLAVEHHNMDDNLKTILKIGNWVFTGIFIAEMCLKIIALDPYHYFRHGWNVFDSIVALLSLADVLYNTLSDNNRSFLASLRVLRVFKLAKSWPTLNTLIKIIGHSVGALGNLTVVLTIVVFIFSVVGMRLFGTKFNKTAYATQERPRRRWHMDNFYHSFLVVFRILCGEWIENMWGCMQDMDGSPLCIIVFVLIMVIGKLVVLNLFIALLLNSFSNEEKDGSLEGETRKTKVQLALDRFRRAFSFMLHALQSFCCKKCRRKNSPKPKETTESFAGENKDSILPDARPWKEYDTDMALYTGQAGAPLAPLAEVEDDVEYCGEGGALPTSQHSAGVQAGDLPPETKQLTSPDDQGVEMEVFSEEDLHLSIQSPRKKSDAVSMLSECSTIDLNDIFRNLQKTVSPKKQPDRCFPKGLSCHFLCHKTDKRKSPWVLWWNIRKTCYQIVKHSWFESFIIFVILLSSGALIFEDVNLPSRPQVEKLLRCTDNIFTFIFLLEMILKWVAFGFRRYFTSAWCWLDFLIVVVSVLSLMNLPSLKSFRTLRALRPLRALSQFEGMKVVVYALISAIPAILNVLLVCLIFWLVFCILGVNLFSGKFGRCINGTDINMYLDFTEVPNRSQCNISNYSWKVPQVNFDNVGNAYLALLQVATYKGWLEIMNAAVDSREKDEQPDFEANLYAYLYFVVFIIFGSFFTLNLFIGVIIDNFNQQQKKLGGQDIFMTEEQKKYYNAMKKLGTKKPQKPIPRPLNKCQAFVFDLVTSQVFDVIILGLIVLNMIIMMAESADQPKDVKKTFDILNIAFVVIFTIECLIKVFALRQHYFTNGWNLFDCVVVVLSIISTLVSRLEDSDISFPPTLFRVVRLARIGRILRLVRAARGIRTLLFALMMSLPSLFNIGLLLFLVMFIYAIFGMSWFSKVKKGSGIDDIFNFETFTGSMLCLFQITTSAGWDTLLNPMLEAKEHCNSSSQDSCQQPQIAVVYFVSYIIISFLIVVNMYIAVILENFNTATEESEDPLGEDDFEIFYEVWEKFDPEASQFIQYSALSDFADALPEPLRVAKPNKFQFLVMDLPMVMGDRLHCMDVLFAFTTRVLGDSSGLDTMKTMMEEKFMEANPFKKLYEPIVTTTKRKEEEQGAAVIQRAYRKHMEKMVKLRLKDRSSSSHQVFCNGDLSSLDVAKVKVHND

C[C@]12CC[C@H](O)CC1=CC[C@@H]1[C@@H]2CC[C@]2(C)C(=O)CC[C@@H]12 [DHEA, dehydroepiandrosterone]
IC50: 49.2 µM
